Laboratory results published in article PMC8951328, “New Metabolites from the Marine Sponge Scopalina hapalia Collected in Mayotte Lagoon” (Marine Drugs, 2022).

Molecular target: T1, yeast proteasome (Saccharomyces cerevisiae, UniProt P30656)
T1 construct: gene PRE2; yeast proteasome (TUM Groll group); with other subunits of the yeast proteasome
T1 sequence (P30656 76-287): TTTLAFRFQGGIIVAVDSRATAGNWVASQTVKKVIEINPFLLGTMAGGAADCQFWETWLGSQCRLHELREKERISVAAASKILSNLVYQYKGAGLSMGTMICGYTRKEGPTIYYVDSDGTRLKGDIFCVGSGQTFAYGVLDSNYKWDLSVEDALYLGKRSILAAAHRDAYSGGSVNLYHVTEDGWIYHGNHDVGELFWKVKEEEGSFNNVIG
Test: fluorescence intensity assay with Suc-Leu-Leu-Val-Tyr-AMC substrate
Format: biochemical

Question: With `COc1ccc(C[C@H](NC(=O)[C@H](C)NC(=O)CN2CCOCC2)C(=O)N[C@@H](Cc2ccccc2)C(=O)[C@@]2(C)CO2)cc1` [ONX-0914] as the molecule, how does the IC50 read?
Answer: 36.6 pM
